In ChEMBL document CHEMBL5223102, “CDK9 inhibitors in cancer research” (RSC Med Chem, 2022):
pIC50: −log10 of the molar value.

Experiments:
CDK4/Cyclin D3 = CDK4/Cyclin D3 (Homo sapiens, UniProt P11802); assay: Inhibition of human CDK4/Cyclin D3 in presence of ATP; type: protein-complex assay
CDK9/cyclin T1 = CDK9/cyclin T1 (Homo sapiens, UniProt P50750); assay: Inhibition of human CDK9/cyclin T1 in presence of ATP; type: protein-complex assay
[1] = biological target: T1, Cyclin-dependent kinase 1 (Homo sapiens, UniProt P06493); assay: Inhibition of CDK1 (unknown origin) by LANCE ULight TR-FRET assay
[2] = biological target: T2, Cyclin-dependent kinase 8 (Homo sapiens, UniProt P49336); assay: Inhibition of CDK8 (unknown origin) by LANCE ULight TR-FRET assay
[3] = biological target: T3, Cyclin-dependent kinase 2 (Homo sapiens, UniProt P24941); assay: Inhibition of CDK2 (unknown origin) by LANCE ULight TR-FRET assay
[4] = biological target: T4, Cyclin-dependent kinase 7 (Homo sapiens, UniProt P50613); assay: Inhibition of CDK7 (unknown origin) by LANCE ULight TR-FRET assay
[5] = biological target: T5, Cyclin-dependent kinase 4 (Homo sapiens, UniProt P11802); assay: Inhibition of CDK4 (unknown origin) by LANCE ULight TR-FRET assay
[6] = biological target: T6, Cyclin-dependent kinase 2/cyclin A (Homo sapiens, UniProt P24941); assay: Inhibition of CDK2/cyclin A (unknown origin) using GST-CTD and gamma-32P-ATP as substrate incubated for 5 min by […]; type: protein-complex assay
[7] = biological target: Cyclin-dependent kinase 5/CDK5 activator 1 (Homo sapiens, UniProt Q00535); assay: Inhibition of CDK5/p35 (unknown origin); type: protein-complex assay
[8] = biological target: T7, Cyclin-dependent kinase 5 (Homo sapiens, UniProt Q00535); assay: Inhibition of CDK5 (unknown origin)
[9] = biological target: T3, Cyclin-dependent kinase 2
[10] = biological target: T2, Cyclin-dependent kinase 8; assay: Inhibition of CDK8 (unknown origin)
[11] = biological target: T8, Cyclin-dependent kinase 6 (Homo sapiens, UniProt Q00534); assay: Inhibition of CDK6 (unknown origin)
[12] = biological target: T9, Cyclin-dependent kinase 17 (Homo sapiens, UniProt Q00537); assay: Inhibition of CDK17 (unknown origin) by Kinomescan method
[13] = biological target: T3, Cyclin-dependent kinase 2; assay: Inhibition of CDK2 (unknown origin) by Kinomescan method
[14] = biological target: T10, Cyclin-dependent kinase 16 (Homo sapiens, UniProt Q00536); assay: Inhibition of CDK16 (unknown origin) by Kinomescan method
[15] = biological target: T7, Cyclin-dependent kinase 5; assay: Inhibition of CDK5 (unknown origin) by Kinomescan method
[16] = biological target: T11, Cyclin-dependent kinase 14 (Homo sapiens, UniProt O94921); assay: Inhibition of CDK14 (unknown origin) by Kinomescan method
[17] = biological target: T12, Cyclin-dependent kinase 9 (Homo sapiens, UniProt P50750); assay: Inhibition of CDK9 (unknown origin) by Kinomescan method
[18] = biological target: T2, Cyclin-dependent kinase 8; assay: Inhibition of CDK8 (unknown origin) by Kinomescan method
[19] = biological target: T12, Cyclin-dependent kinase 9; assay: Inhibition of CDK9 (unknown origin) at 1 uM by Kinomescan method
[20] = biological target: T1, Cyclin-dependent kinase 1; assay: Inhibition of CDK1 (unknown origin) by Kinomescan method
[21] = biological target: T4, Cyclin-dependent kinase 7
[22] = biological target: T13, Cyclin-dependent kinase 18 (Homo sapiens, UniProt Q07002); assay: Inhibition of CDK18 (unknown origin) by Kinomescan method
[23] = biological target: Dual specificity tyrosine-phosphorylation-regulated kinase 1B (Homo sapiens, UniProt Q9Y463); assay: Inhibition of DYRK1B (unknown origin) by Kinomescan method
[24] = biological target: T12, Cyclin-dependent kinase 9
CDK6/cyclin D3 = CDK6/cyclin D3 (Homo sapiens, UniProt Q00534); assay: Inhibition of human CDK6/Cyclin D3 in presence of gamma32P-ATP by scintillation counter analysis; type: protein-complex assay
[25] = biological target: T6, Cyclin-dependent kinase 2/cyclin A; assay: Inhibition of human CDK2/Cyclin A in presence of gamma32P-ATP by scintillation counter analysis; type: protein-complex assay
[26] = biological target: T14, Cyclin-dependent kinase 4/cyclin D1 (Homo sapiens, UniProt P11802); assay: Inhibition of human CDK4/Cyclin D1 assessed as substrate phosphorylation at ser780 using GST tagged retinoblastoma as substrate in presence of gamma32P-ATP by scintillation counter analysis; type: protein-complex assay
[27] = biological target: T15, Cyclin-dependent kinase 1/cyclin B (Homo sapiens, UniProt P06493); assay: Inhibition of human CDK1/Cyclin B in presence of gamma32P-ATP by scintillation counter analysis; type: protein-complex assay
[28] = biological target: T9, Cyclin-dependent kinase 17; assay: Inhibition of CDK17 (unknown origin) incubated for 120 mins in presence of ATP by HotSpot kinase assay
[29] = biological target: Cyclin-dependent kinase 3 (Homo sapiens, UniProt Q00526); assay: Inhibition of CDK3 (unknown origin) incubated for 120 mins in presence of ATP by HotSpot kinase assay
[30] = biological target: Cyclin-dependent kinase 12 (Homo sapiens, UniProt Q9NYV4)
[31] = biological target: T2, Cyclin-dependent kinase 8; assay: Inhibition of CDK8 (unknown origin) incubated for 120 mins in presence of ATP by HotSpot kinase assay
[32] = biological target: T5, Cyclin-dependent kinase 4; assay: Inhibition of CDK4 (unknown origin) incubated for 120 mins in presence of ATP by HotSpot kinase assay
[33] = biological target: T11, Cyclin-dependent kinase 14; assay: Inhibition of CDK14 (unknown origin) incubated for 120 mins in presence of ATP by HotSpot kinase assay
[34] = biological target: T7, Cyclin-dependent kinase 5; assay: Inhibition of CDK5 (unknown origin) incubated for 120 mins in presence of ATP by HotSpot kinase assay
[35] = biological target: T8, Cyclin-dependent kinase 6; assay: Inhibition of CDK6 (unknown origin) incubated for 120 mins in presence of ATP by HotSpot kinase assay
[36] = biological target: Cyclin-dependent kinase 13 (Homo sapiens, UniProt Q14004)
[37] = biological target: T10, Cyclin-dependent kinase 16; assay: Inhibition of CDK16 (unknown origin) incubated for 120 mins in presence of ATP by HotSpot kinase assay
[38] = biological target: T3, Cyclin-dependent kinase 2; assay: Inhibition of CDK2 (unknown origin) incubated for 120 mins in presence of ATP by HotSpot kinase assay
[39] = biological target: T13, Cyclin-dependent kinase 18
[40] = biological target: Cyclin-dependent kinase 19 (Homo sapiens, UniProt Q9BWU1); assay: Inhibition of CDK19 (unknown origin) incubated for 120 mins in presence of ATP by HotSpot kinase assay
[41] = biological target: T16, Protein cereblon/Cyclin-dependent kinase 9 (Homo sapiens, UniProt P50750+Q96SW2); assay: Protac activity at CRBN/CDK9 in human MOLT-4 cells assessed as degradation of CDK9 measured after 6 hrs by western blot analysis; type: cell-based
[42] = biological target: T15, Cyclin-dependent kinase 1/cyclin B; assay: Inhibition of CDK1/Cyclin B (unknown origin); type: protein-complex assay
[43] = Inhibition of CDK3/Cyclin E (unknown origin); parameters: species or system Homo sapiens
[44] = Inhibition of CDK4/Cyclin D (unknown origin); parameters: species or system Homo sapiens
[45] = Inhibition of CDK7/Cyclin H/MAT1 (unknown origin); parameters: species or system Homo sapiens
[46] = Inhibition of CDK6/Cyclin D3 (unknown origin); parameters: species or system Homo sapiens
[47] = biological target: T12, Cyclin-dependent kinase 9; assay: Inhibition of CDK9 (unknown origin) using TMB as substrate by ELISA
[48] = biological target: T8, Cyclin-dependent kinase 6; assay: Inhibition of CDK6 (unknown origin) assessed as substrate phosphorylation using ULight MBP peptide as substrate in presence of ATP incubated for 1 hr by FRET based LANCE Ultra KinaSelect screen assay
[49] = biological target: T6, Cyclin-dependent kinase 2/cyclin A; assay: Inhibition of CDK2/cyclin A (unknown origin) assessed as substrate phosphorylation using ULight MBP peptide as substrate in presence of ATP incubated for 1 hr by FRET based LANCE Ultra KinaSelect screen assay; type: protein-complex assay
[50] = biological target: Cyclin-dependent kinase 1/cyclin B1 (Homo sapiens, UniProt P06493); assay: Inhibition of CDK1/cyclin B1 (unknown origin) assessed as substrate phosphorylation using ULight MBP peptide as substrate in presence of ATP incubated for 1 hr by FRET based LANCE Ultra KinaSelect screen assay; type: protein-complex assay
[51] = biological target: T14, Cyclin-dependent kinase 4/cyclin D1; assay: Inhibition of CDK4/cyclin D1 (unknown origin) assessed as substrate phosphorylation using ULight MBP peptide as substrate in presence of ATP incubated for 1 hr by FRET based LANCE Ultra KinaSelect screen assay; type: protein-complex assay
[52] = biological target: T4, Cyclin-dependent kinase 7; assay: Inhibition of CDK7 (unknown origin) assessed as substrate phosphorylation using ULight MBP peptide as substrate in presence of ATP incubated for 1 hr by FRET based LANCE Ultra KinaSelect screen assay
[53] = biological target: T16, Protein cereblon/Cyclin-dependent kinase 9; assay: Protac activity at CRBN/CDK9 in human MCF7 cells assessed as degradation of CDK9 measured after 24 hrs by western blot analysis; type: cell-based
[54] = biological target: T5, Cyclin-dependent kinase 4; assay: Inhibition of CDK4 (unknown origin)
CDK9/Cyclin K = CDK9/Cyclin K (Homo sapiens, UniProt P50750); assay: Inhibition of CDK9/Cyclin K (unknown origin) by LanthaScreen binding assay; type: protein-complex assay
CDK8/Cyclin C = CDK8/Cyclin C (Homo sapiens, UniProt P49336); assay: Inhibition of CDK8/Cyclin C (unknown origin) by LanthaScreen binding assay; type: protein-complex assay
[55] = biological target: Cyclin-C/Cyclin-dependent kinase 19 (Homo sapiens, UniProt Q9BWU1); assay: Inhibition of CDK19/Cyclin C (unknown origin) by LanthaScreen binding assay; type: protein-complex assay

T2 sequence (P49336 whole entry): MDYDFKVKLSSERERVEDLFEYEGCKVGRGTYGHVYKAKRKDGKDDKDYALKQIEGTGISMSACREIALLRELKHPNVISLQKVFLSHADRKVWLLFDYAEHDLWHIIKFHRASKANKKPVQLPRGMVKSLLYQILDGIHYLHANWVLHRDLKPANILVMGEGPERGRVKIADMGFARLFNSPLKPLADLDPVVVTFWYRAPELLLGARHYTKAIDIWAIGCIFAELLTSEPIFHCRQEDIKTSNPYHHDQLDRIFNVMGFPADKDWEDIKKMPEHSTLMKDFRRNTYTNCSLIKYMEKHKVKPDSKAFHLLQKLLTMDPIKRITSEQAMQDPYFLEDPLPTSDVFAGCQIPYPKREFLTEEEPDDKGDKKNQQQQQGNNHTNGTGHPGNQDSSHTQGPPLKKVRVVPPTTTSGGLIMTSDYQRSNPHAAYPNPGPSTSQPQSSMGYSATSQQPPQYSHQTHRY
T7 sequence (Q00535 whole entry): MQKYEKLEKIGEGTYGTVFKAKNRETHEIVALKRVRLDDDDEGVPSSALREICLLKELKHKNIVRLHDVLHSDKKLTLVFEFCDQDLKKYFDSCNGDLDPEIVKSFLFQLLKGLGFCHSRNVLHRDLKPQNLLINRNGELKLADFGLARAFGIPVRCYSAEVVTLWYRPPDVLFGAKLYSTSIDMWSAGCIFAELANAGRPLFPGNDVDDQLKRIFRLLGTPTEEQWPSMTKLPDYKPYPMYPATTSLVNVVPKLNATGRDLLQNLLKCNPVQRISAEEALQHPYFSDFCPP
T8 sequence (Q00534 whole entry): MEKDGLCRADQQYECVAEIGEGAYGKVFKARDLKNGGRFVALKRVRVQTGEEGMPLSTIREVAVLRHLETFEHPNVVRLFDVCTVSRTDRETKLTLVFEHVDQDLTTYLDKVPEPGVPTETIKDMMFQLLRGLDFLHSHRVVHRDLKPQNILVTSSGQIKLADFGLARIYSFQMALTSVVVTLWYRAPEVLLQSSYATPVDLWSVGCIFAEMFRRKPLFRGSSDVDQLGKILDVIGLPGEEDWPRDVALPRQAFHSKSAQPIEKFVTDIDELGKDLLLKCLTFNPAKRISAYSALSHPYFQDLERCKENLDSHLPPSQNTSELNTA
T12 sequence (P50750 whole entry): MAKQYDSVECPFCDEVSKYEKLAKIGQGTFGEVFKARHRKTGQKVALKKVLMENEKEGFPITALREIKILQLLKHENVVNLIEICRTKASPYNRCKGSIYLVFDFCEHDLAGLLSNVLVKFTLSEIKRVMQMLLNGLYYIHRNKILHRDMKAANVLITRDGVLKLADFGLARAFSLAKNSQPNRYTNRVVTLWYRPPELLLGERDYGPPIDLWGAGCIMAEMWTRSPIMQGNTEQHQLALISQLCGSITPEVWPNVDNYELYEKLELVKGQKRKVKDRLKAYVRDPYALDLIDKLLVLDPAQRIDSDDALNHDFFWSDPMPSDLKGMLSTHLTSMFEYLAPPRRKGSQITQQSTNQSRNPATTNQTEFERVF
T4 sequence (P50613 whole entry): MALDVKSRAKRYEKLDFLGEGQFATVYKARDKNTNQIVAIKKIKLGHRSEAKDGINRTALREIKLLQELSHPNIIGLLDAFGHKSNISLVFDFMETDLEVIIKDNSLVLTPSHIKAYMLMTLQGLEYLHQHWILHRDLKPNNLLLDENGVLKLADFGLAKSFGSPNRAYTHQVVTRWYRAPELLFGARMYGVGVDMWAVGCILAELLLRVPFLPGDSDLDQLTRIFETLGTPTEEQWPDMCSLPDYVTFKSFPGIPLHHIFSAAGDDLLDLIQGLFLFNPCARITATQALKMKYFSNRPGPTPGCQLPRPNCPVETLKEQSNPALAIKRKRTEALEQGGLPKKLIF
T5 sequence (P11802 whole entry): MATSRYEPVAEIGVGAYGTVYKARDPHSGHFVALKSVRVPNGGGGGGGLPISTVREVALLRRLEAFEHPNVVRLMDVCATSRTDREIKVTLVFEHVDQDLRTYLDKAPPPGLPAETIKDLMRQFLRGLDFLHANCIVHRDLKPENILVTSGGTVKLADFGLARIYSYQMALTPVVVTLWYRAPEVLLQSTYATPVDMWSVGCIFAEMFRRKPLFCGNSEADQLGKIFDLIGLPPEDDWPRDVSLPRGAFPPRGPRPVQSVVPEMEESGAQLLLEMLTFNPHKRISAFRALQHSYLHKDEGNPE
T13 sequence (Q07002 whole entry): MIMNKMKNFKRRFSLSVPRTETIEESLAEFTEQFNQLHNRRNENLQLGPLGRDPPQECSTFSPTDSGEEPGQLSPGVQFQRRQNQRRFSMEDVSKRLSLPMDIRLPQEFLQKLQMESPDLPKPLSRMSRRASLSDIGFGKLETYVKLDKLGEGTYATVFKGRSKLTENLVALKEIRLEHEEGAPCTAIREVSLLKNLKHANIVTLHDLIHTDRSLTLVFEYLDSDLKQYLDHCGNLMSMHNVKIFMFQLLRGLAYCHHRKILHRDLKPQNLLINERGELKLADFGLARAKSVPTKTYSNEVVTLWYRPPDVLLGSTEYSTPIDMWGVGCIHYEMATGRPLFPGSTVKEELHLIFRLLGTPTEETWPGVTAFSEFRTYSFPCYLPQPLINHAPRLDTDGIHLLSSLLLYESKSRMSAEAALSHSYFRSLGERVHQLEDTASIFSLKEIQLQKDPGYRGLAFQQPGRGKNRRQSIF
T11 sequence (O94921 whole entry): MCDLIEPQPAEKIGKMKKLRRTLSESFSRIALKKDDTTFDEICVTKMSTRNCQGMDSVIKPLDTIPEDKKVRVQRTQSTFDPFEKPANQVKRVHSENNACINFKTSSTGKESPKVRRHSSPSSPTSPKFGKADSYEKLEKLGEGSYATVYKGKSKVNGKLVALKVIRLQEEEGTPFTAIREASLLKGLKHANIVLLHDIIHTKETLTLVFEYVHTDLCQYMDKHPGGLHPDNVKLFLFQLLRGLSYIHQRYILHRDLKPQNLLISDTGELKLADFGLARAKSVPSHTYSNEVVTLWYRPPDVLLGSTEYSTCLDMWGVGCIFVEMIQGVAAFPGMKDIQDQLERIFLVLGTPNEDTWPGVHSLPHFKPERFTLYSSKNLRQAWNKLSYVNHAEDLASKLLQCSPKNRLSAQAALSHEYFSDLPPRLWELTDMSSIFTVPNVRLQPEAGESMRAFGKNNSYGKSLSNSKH
T9 sequence (Q00537 whole entry): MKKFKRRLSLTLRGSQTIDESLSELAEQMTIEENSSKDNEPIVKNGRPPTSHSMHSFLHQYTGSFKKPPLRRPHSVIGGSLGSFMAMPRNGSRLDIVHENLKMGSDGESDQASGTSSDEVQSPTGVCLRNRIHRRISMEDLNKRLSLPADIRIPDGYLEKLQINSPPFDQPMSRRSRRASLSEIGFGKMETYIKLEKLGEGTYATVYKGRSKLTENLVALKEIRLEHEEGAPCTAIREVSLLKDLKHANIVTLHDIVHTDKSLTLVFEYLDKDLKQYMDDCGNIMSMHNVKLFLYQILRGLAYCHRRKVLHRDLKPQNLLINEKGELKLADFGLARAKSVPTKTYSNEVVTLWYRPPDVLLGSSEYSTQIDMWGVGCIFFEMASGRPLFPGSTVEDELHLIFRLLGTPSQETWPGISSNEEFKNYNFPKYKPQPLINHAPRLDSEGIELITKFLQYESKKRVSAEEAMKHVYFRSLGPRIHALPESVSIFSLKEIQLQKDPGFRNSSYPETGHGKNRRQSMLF
Sequence of Cyclin-dependent kinase 5/CDK5 activator 1 (Q00535 whole entry): as the sequence (Q00535 whole entry) above
Sequence of Cyclin-dependent kinase 5/CDK5 activator 1 (Q15078 whole entry, further chain): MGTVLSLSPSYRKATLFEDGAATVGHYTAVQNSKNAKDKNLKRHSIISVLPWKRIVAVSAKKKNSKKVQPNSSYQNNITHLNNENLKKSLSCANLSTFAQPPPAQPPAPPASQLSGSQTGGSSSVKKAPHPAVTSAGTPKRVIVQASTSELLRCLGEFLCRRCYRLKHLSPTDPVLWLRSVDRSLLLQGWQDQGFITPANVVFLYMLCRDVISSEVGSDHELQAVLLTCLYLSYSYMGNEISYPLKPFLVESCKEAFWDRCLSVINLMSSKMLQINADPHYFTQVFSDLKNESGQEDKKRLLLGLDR
T10 sequence (Q00536 whole entry): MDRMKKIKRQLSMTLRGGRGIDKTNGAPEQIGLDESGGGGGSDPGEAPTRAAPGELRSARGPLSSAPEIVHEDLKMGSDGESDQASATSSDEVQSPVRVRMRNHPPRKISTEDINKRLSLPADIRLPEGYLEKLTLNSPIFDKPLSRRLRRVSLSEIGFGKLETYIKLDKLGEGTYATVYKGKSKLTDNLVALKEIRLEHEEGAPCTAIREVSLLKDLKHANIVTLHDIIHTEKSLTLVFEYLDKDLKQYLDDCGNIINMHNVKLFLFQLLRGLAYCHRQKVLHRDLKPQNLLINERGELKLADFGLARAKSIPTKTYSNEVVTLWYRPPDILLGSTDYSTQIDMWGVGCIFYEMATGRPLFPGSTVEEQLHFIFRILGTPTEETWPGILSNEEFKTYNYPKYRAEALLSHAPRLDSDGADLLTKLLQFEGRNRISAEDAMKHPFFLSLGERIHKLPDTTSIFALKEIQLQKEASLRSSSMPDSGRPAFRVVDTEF

CN(C)CCNC(=O)c1ccc(Nc2ncc3cc(C(=O)N(C)C)n(C4CCCC4)c3n2)c(F)c1
pIC50 (CDK4/Cyclin D3): 8.60 | pIC50 (CDK9/cyclin T1): 8.15

COc1ccc(F)cc1-c1c(F)cnc2[nH]c(C3=CCN([C@H]4CC[C@H](C(=O)O)CC4)CC3)cc12
pIC50 [1]: 6.46 | pIC50 [2]: 5.79 | pIC50 [3]: 6.48 | pIC50 [4]: 4.84 | pIC50 [5]: 7.79

Nc1n[nH]c(N)c1/N=N/c1ccc(O)cc1
pIC50 [6]: 5.46

COCCN1CCN(Cc2ccc(-c3n[nH]c4c3C(=O)c3c(NC(=O)NN5CCOCC5)cccc3-4)cc2)CC1 [RGB-286638]
pIC50 [7]: 8.30

CN1CC[C@@H](c2c(O)cc(O)c3c(=O)cc(-c4ccc(C(F)(F)F)cc4Cl)oc23)[C@@H]1CO [VORUCICLIB]
pIC50 [8]: 6.68 | pIC50 [9]: 6.74 | pIC50 [10]: 7.92 | pIC50 [11]: 6.68

COC[C@@H](C)N[C@H]1CC[C@H](Nc2cc(-c3cccc(NCC4(C#N)CCOCC4)n3)c(Cl)cn2)CC1
pIC50 [12]: 5.82 | pIC50 [13]: 6.15 | pIC50 [14]: 6.22 | pIC50 [15]: 5.98 | pIC50 [16]: 5.46 | pIC50 [17]: > 9.29 | pIC50 [18]: < 5.00 | inhibition [19]: 99% | pIC50 [20]: 6.23 | pIC50 [21]: < 5.00 | pIC50 [22]: 5.31 | pIC50 [23]: 6.46

COc1cc(O)c2c(=O)cc(-c3ccc(N4CCN(C)CC4)cc3)oc2c1N1CCNCC1
pIC50 [9]: 5.93 | pIC50 [24]: 7.52

CN1CCC(c2c(O)cc(O)c3c(=O)cc(-c4ccccc4Cl)oc23)C1CO (configuration not stated) [RIVICICLIB]
pIC50 (CDK6/cyclin D3): 6.40 | pIC50 [25]: 6.65 | pIC50 [26]: 7.20 | pIC50 [27]: 7.10

CCCc1cc(N[C@@H]2CC[C@@H](N)C2)n2nccc2n1
pIC50 [28]: < 5.92 | pIC50 [29]: < 5.92 | pIC50 [30]: 5.21 | pIC50 [31]: < 5.92 | pIC50 [32]: < 5.92 | pIC50 [33]: < 5.92 | pIC50 [34]: < 5.92 | pIC50 [35]: < 5.92 | pIC50 [36]: 5.34 | pIC50 [37]: < 5.92 | pIC50 [38]: 4.74 | pIC50 [39]: < 5.92 | pIC50 [40]: < 5.92

CC(C)(C)c1cnc(CSc2cnc(NC(=O)C3CCN(CC(=O)NCCOCCOCCOCCNc4cccc5c4C(=O)N(C4CCC(=O)NC4=O)C5=O)CC3)s2)o1 (configuration not stated)
DC50 [41]: < 250 nM

Nc1nc(N[C@H]2CC3CCC2C3)sc1C(=O)c1ccccc1[N+](=O)[O-] (some centres not stated)
pIC50 [42]: 6.86 | pIC50 [43]: 6.40 | pIC50 [7]: 6.80 | pIC50 [44]: 6.95 | pIC50 [45]: 6.26 | pIC50 [46]: 6.15

O=C1N=NC(=O)/C(=C/Nc2ccc(-c3nc4ncccc4[nH]3)cc2)C(=O)N1
pIC50 [47]: 6.30

COc1ccccc1-c1cc(Nc2cccc(CS(N)(=O)=O)c2)ncn1
pIC50 [48]: < 5.00 | pIC50 [49]: 5.61 | pIC50 [50]: 5.26 | pIC50 [51]: 5.03 | pIC50 [52]: < 5.00

O=C1CCC(N2C(=O)c3cccc(NC(=O)CCCCCn4cc(Oc5c(O)cc(O)c6c(=O)cc(-c7ccccc7)oc56)nn4)c3C2=O)C(=O)N1 (configuration not stated)
DC50 [53]: 10000 nM

Fc1ccc(N2CCCCC2)c(NC(=S)c2ccncc2)c1
pIC50 [54]: 4.52

CC(C)c1ccc(Nc2nccc(-c3cnn4ncccc34)n2)cc1 [GW805758X]
pIC50 (CDK9/Cyclin K): 7.70 | pIC50 (CDK8/Cyclin C): 8.96 | pIC50 [55]: 8.57
